# Source: patent publication US20250101023A1, “HETEROARYL DERIVATIVE AND USES THEREOF” (IUCF-HYU (INDUSTRY-UNIVERSITY COOPERATION FOUNDATION …, priority 2022, published 2025)
# What was measured:
# Assay type in all cases: biochemical
# [1] = target: CDK12/CyclinK (Homo sapiens (Human), UniProt Q9NYV4); experiment: CDK12/cyclinK enzyme activity; conditions: in vitro
# [2] = tested on: 371 human wild-type kinases; experiment: Kinome-wide inhibitory activity profiling (panel summary); conditions: 10 μM; CDK1, 2, 3, 5, 7, 9, 17, 18 complexes, LKB1, EPHA3/4/5/6, EPHB2, DYRK1A/B, MAK, MYLK4, GSK3b, FES, CHK2, PAK5, ERK1
# [3] = target: CDK1/cyclin B (Homo sapiens (Human), UniProt P06493); experiment: Kinome-wide profiling; conditions: read-out: % Residual Activity (mean)
# [4] = target: DYRK1/DYRKIA (Homo sapiens (Human), UniProt Q13627); experiment: Kinome-wide profiling; conditions: read-out: % Residual Activity (mean)
# [5] = target: CDK2/cyclin E2 (Homo sapiens (Human), UniProt P24941); experiment: Kinome-wide profiling; conditions: read-out: % Residual Activity (mean)
# [6] = target: CK1d (Homo sapiens (Human), UniProt P48730); experiment: Kinome-wide profiling; conditions: read-out: % Residual Activity (mean)
# [7] = target: CAMKK2 (Homo sapiens (Human), UniProt Q96RR4); experiment: Kinome-wide profiling; conditions: read-out: % Residual Activity (mean)
# [8] = target: c-Kit (Homo sapiens (Human), UniProt P10721); experiment: Kinome-wide profiling; conditions: read-out: % Residual Activity (mean)
# Sequence of c-Kit (P10721 26-976): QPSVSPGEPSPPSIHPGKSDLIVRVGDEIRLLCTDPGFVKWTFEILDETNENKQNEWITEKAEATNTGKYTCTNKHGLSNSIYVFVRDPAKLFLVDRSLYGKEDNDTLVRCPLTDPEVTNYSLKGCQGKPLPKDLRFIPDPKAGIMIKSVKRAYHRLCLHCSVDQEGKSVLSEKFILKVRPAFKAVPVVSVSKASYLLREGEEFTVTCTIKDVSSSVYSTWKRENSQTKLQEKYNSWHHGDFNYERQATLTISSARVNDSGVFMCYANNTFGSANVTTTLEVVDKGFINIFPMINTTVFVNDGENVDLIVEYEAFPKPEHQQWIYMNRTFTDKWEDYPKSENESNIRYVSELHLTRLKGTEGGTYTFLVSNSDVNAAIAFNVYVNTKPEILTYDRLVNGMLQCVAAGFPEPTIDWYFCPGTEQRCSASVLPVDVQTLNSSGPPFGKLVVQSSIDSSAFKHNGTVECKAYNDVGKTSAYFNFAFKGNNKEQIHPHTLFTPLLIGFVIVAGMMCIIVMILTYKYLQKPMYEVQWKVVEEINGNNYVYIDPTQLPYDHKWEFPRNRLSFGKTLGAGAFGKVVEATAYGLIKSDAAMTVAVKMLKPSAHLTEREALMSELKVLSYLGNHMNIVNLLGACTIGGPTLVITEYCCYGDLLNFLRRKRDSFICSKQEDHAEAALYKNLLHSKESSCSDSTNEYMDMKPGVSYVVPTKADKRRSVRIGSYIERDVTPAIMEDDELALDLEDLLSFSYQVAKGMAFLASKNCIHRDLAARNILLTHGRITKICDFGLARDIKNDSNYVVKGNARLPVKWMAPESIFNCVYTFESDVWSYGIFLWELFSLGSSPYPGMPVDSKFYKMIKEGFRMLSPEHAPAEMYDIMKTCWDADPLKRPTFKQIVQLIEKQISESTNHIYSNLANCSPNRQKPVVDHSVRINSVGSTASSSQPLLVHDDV
# [9] = target: CAMKK1 (Homo sapiens (Human), UniProt Q8N5S9); experiment: Kinome-wide profiling; conditions: read-out: % Residual Activity (mean)
# [10] = target: ROS/ROS1 (Homo sapiens (Human), UniProt P08922); experiment: Kinome-wide profiling; conditions: read-out: % Residual Activity (mean)
# [11] = target: PAK3 (Homo sapiens (Human), UniProt O75914); experiment: Kinome-wide profiling; conditions: read-out: % Residual Activity (mean)
# Sequence of PAK3 (O75914 whole entry): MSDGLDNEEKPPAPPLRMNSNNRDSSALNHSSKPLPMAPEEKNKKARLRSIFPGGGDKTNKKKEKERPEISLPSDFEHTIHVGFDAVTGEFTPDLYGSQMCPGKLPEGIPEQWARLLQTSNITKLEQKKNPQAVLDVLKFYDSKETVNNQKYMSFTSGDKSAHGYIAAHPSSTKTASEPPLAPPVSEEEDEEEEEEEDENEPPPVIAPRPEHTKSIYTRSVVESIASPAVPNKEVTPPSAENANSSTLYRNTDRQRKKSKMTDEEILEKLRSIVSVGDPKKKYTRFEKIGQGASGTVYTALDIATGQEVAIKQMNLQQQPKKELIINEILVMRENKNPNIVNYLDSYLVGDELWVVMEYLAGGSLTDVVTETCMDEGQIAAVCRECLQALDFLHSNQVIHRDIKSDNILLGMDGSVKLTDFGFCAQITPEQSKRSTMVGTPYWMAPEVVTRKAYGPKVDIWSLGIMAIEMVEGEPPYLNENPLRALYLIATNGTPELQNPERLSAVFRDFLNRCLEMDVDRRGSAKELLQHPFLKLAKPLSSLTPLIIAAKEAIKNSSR
# [12] = target: MAST3 (Homo sapiens (Human), UniProt O60307); experiment: Kinome-wide profiling; conditions: read-out: % Residual Activity (mean)
# [13] = target: MST4 (Homo sapiens (Human), UniProt Q9P289); experiment: Kinome-wide profiling; conditions: read-out: % Residual Activity (mean)
# [14] = target: CDK6/cyclin D2 (Homo sapiens (Human), UniProt Q00534); experiment: Kinome-wide profiling; conditions: read-out: % Residual Activity (mean)
# [15] = target: SIK1 (Homo sapiens (Human), UniProt P57059); experiment: Kinome-wide profiling; conditions: read-out: % Residual Activity (mean)
# [16] = target: CAMK1d (Homo sapiens (Human), UniProt Q8IU85); experiment: Kinome-wide profiling; conditions: read-out: % Residual Activity (mean)
# [17] = target: RSK1 (Homo sapiens (Human), UniProt Q15418); experiment: Kinome-wide profiling; conditions: read-out: % Residual Activity (mean)
# [18] = target: LIMK1 (Homo sapiens (Human), UniProt P53667); experiment: Kinome-wide profiling; conditions: read-out: % Residual Activity (mean)
# [19] = target: BRAF (Homo sapiens (Human), UniProt P15056); experiment: Kinome-wide profiling; conditions: read-out: % Residual Activity (mean)
# [20] = target: JNK2 (Homo sapiens (Human), UniProt P45984); experiment: Kinome-wide profiling; conditions: read-out: % Residual Activity (mean)
# [21] = target: MLK2/MAP3K10 (Homo sapiens (Human), UniProt Q02779); experiment: Kinome-wide profiling; conditions: read-out: % Residual Activity (mean)
# [22] = target: CAMK1b (Homo sapiens (Human), UniProt Q6P2M8); experiment: Kinome-wide profiling; conditions: read-out: % Residual Activity (mean)
# Sequence of CAMK1b (Q6P2M8 whole entry): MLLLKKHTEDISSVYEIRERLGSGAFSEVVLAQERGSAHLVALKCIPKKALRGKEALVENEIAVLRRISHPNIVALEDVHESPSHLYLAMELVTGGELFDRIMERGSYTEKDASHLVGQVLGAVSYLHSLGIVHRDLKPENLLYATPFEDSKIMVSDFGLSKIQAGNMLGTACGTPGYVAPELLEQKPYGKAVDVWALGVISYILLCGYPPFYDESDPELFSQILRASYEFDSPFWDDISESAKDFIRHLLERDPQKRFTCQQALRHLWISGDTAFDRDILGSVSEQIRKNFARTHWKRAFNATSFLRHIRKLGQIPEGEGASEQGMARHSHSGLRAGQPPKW
# [23] = target: ULK1 (Homo sapiens (Human), UniProt O75385); experiment: Kinome-wide profiling; conditions: read-out: % Residual Activity (mean)
# Sequence of ULK1 (O75385 whole entry): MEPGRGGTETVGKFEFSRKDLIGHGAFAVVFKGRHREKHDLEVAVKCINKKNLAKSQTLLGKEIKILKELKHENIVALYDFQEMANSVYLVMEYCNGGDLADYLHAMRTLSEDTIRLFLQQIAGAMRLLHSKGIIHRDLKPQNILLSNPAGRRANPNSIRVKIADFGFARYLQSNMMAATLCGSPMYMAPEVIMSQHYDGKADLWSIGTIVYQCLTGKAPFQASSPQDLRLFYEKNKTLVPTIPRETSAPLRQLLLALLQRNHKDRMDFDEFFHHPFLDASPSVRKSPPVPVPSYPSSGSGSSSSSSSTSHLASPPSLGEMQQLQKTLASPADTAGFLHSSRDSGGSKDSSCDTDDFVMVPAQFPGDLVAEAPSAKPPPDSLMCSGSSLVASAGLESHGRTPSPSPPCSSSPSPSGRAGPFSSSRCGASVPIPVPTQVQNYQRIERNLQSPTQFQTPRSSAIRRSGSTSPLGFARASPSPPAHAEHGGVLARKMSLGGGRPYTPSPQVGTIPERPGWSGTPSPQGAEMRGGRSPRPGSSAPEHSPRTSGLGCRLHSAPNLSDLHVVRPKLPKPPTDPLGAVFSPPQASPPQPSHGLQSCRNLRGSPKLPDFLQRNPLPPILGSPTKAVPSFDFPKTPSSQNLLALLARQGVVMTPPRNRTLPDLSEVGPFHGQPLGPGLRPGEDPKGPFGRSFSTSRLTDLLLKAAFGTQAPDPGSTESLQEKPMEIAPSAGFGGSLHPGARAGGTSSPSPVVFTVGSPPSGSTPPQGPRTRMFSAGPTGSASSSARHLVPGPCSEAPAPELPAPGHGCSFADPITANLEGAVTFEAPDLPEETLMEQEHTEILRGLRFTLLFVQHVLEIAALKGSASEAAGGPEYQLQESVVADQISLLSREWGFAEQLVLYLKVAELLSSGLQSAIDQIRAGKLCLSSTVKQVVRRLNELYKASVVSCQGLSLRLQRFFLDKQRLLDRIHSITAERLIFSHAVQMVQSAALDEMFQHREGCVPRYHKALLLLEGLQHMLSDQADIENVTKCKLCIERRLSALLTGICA
# [24] = target: MEK3 (Homo sapiens (Human), UniProt P46734); experiment: Kinome-wide profiling; conditions: read-out: % Residual Activity (mean)
# Sequence of MEK3 (P46734 whole entry): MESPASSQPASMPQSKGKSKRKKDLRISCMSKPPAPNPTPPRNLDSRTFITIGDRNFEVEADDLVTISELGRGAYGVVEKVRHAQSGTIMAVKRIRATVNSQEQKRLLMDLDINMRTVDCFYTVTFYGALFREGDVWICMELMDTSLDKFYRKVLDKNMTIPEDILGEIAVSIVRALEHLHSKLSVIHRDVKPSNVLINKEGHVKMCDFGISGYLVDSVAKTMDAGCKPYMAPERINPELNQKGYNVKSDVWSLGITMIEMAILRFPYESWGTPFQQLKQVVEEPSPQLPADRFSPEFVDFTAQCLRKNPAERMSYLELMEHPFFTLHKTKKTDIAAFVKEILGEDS
# [25] = target: MARK2/PAR-1Ba (Homo sapiens, UniProt Q7KZI7); experiment: Kinome-wide profiling; conditions: read-out: % Residual Activity (mean)
# [26] = target: CHK1 (Homo sapiens (Human), UniProt O14757); experiment: Kinome-wide profiling; conditions: read-out: % Residual Activity (mean)
# [27] = target: MSK1/RPS6KA5 (Homo sapiens (Human), UniProt O75582); experiment: Kinome-wide profiling; conditions: read-out: % Residual Activity (mean)
# [28] = target: PKN3/PRK3 (Homo sapiens (Human), UniProt Q6P5Z2); experiment: Kinome-wide profiling; conditions: read-out: % Residual Activity (mean)
# [29] = target: MARK3 (Homo sapiens (Human), UniProt P27448); experiment: Kinome-wide profiling; conditions: read-out: % Residual Activity (mean)
# [30] = target: CK2a (Homo sapiens (Human), UniProt P68400); experiment: Kinome-wide profiling; conditions: read-out: % Residual Activity (mean)
# Sequence of CK2a (P68400 whole entry): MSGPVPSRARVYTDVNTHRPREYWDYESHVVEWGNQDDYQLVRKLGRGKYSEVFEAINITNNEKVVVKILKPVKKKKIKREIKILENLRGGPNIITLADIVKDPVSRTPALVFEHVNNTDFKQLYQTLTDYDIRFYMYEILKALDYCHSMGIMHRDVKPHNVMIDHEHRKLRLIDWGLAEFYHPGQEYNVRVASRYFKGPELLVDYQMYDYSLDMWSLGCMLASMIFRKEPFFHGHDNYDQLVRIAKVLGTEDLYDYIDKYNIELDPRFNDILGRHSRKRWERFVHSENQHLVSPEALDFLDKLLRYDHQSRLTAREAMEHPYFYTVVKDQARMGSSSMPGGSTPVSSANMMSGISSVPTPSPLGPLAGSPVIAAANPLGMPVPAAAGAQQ
# [31] = target: JAK2 (Homo sapiens (Human), UniProt O60674); experiment: Kinome-wide profiling; conditions: read-out: % Residual Activity (mean)
# [32] = target: WEE1 (Homo sapiens (Human), UniProt P30291); experiment: Kinome-wide profiling; conditions: read-out: % Residual Activity (mean)
# [33] = target: GRK5 (Homo sapiens (Human), UniProt P34947); experiment: Kinome-wide profiling; conditions: read-out: % Residual Activity (mean)
# [34] = target: NEK6 (Homo sapiens (Human), UniProt Q9HC98); experiment: Kinome-wide profiling; conditions: read-out: % Residual Activity (mean)
# [35] = target: ROCK2 (Homo sapiens (Human), UniProt O75116); experiment: Kinome-wide profiling; conditions: read-out: % Residual Activity (mean)
# Sequence of ROCK2 (O75116 whole entry): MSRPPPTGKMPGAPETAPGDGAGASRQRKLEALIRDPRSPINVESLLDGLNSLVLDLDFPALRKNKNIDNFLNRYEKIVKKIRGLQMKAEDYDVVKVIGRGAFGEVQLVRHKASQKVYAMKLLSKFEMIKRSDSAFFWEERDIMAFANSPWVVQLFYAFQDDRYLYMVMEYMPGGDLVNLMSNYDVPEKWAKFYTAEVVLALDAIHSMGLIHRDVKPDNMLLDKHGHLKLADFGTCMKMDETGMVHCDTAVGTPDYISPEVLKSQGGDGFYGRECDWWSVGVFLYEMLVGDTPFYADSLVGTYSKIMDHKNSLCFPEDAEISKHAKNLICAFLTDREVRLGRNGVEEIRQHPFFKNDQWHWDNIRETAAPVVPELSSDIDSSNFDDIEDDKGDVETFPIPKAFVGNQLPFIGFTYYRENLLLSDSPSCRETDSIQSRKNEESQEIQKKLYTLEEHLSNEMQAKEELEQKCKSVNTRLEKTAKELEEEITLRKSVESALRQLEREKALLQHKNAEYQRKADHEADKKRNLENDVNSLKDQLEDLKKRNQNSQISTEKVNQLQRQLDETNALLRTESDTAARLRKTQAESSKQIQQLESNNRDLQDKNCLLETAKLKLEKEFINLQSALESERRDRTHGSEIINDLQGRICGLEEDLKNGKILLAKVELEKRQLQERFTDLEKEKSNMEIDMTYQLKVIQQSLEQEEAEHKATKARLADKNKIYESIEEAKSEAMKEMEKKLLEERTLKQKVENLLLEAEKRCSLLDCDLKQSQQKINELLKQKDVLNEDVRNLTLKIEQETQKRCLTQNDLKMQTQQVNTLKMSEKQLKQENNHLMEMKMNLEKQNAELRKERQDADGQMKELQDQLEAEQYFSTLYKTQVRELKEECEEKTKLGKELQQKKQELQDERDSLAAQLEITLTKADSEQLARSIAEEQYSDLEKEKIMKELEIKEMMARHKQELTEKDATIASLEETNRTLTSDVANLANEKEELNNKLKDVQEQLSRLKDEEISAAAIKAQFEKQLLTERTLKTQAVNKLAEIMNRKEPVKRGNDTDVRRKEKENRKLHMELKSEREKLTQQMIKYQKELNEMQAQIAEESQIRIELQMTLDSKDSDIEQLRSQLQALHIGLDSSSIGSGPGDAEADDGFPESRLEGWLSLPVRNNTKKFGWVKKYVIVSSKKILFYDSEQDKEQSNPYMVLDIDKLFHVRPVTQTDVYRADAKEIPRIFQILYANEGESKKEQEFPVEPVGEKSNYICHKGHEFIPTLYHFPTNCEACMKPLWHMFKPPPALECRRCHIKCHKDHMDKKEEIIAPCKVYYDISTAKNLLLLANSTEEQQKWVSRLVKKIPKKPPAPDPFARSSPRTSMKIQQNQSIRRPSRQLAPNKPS
# [36] = target: SBK1 (Homo sapiens (Human), UniProt Q52WX2); experiment: Kinome-wide profiling; conditions: read-out: % Residual Activity (mean)
# [37] = target: CLK3 (Homo sapiens (Human), UniProt P49761); experiment: Kinome-wide profiling; conditions: read-out: % Residual Activity (mean)
# [38] = target: STK21/CIT (Homo sapiens (Human), UniProt O14578); experiment: Kinome-wide profiling; conditions: read-out: % Residual Activity (mean)
smiles,measurement,setting,value
"CCn1cnc2c(NCc3ccc(-c4ccccn4)nc3)nc(-c3ccc(N)nc3)nc21 [Example 53, N-([2,2′-bipyridin]-5-ylmethyl)-2-(6-aminopyridin-3-yl)-9-ethyl-9H-purin-6-amine]",IC50,[1],0.03 µM
same,kinase inhibition,[2],≥ 90%
same,remaining activity at 10 µM,[3],2.06%
same,remaining activity at 10 µM,[4],3.85%
same,remaining activity at 10 µM,[5],9.78%
same,remaining activity at 10 µM,[6],10.2%
same,remaining activity at 10 µM,[7],10.6%
same,remaining activity at 10 µM,[8],14.2%
same,remaining activity at 10 µM,[9],18.7%
same,remaining activity at 10 µM,[10],27.8%
same,remaining activity at 10 µM,[11],29.1%
same,remaining activity at 10 µM,[12],39.3%
same,remaining activity at 10 µM,[13],45.8%
same,remaining activity at 10 µM,[14],51.5%
same,remaining activity at 10 µM,[15],56.3%
same,remaining activity at 10 µM,[16],58%
same,remaining activity at 10 µM,[17],59.1%
same,remaining activity at 10 µM,[18],59.9%
same,remaining activity at 10 µM,[19],60.8%
same,remaining activity at 10 µM,[20],61.7%
same,remaining activity at 10 µM,[21],62.3%
same,remaining activity at 10 µM,[22],66.8%
same,remaining activity at 10 µM,[23],70.3%
same,remaining activity at 10 µM,[24],73.5%
same,remaining activity at 10 µM,[25],74.3%
same,remaining activity at 10 µM,[26],79.5%
same,remaining activity at 10 µM,[27],80.5%
same,remaining activity at 10 µM,[28],81.5%
same,remaining activity at 10 µM,[29],83.1%
same,remaining activity at 10 µM,[30],84.2%
same,remaining activity at 10 µM,[31],87%
same,remaining activity at 10 µM,[32],90.2%
same,remaining activity at 10 µM,[33],91.5%
same,remaining activity at 10 µM,[34],92.1%
same,remaining activity at 10 µM,[35],92.2%
same,remaining activity at 10 µM,[36],94.5%
same,remaining activity at 10 µM,[37],94.6%
same,remaining activity at 10 µM,[38],97.9%
